Laboratory results taken from ChEMBL document CHEMBL6103611, “Structure and Dynamics of Macrophage Infectivity Potentiator Proteins from Pathogenic Bacteria and Protozoans Bound to Fluorinated Pipecolic Acid Inhibitors” (J Med Chem, 2025).
Active and inactive are the calls of the source. No cut-off for these calls is given here.

What was measured:
[1] = target: Outer membrane protein MIP (Legionella pneumophila) (UniProt Q70YI1)
[2] = target: Outer membrane protein MIP (Legionella pneumophila) (UniProt Q70YI1); remark: listed apart in the source
[3] = target: T1, Peptidyl-prolyl cis-trans isomerase (Burkholderia pseudomallei (strain K96243)) (UniProt Q63J95)
T1 sequence (whole entry): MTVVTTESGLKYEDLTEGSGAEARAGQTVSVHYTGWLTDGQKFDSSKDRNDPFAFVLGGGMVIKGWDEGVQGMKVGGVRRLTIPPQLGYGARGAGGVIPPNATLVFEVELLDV

[4] = target: Outer membrane protein MIP (Legionella pneumophila) (UniProt Q70YI1); remark: listed apart in the source
[5] = target: T1, Peptidyl-prolyl cis-trans isomerase (Burkholderia pseudomallei (strain K96243)); remark: listed apart in the source
[6] = target: Outer membrane protein MIP (Legionella pneumophila) (UniProt Q70YI1); remark: listed apart in the source
[7] = target: T1, Peptidyl-prolyl cis-trans isomerase (Burkholderia pseudomallei (strain K96243)); remark: listed apart in the source
[8] = target: Outer membrane protein MIP (Legionella pneumophila) (UniProt Q70YI1); remark: listed apart in the source
[9] = target: T2, Macrophage infectivity potentiator (Trypanosoma cruzi) (UniProt Q09734)
T2 sequence (whole entry): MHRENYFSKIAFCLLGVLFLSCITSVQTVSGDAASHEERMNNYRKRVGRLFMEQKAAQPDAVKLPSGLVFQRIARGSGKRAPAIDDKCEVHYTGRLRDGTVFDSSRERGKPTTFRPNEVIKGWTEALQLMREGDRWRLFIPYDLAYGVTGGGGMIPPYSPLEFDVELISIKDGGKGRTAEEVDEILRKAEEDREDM

[10] = target: Outer membrane protein MIP (Legionella pneumophila) (UniProt Q70YI1); remark: listed apart in the source
[11] = target: Outer membrane protein MIP (Legionella pneumophila) (UniProt Q70YI1); remark: listed apart in the source
[12] = target: Outer membrane protein MIP (Legionella pneumophila) (UniProt Q70YI1); remark: listed apart in the source
[13] = target: T2, Macrophage infectivity potentiator (Trypanosoma cruzi); remark: listed apart in the source
[14] = target: T2, Macrophage infectivity potentiator (Trypanosoma cruzi); remark: listed apart in the source

CC(C)C[C@H](NC(=O)[C@@H]1CCCCN1S(=O)(=O)Cc1ccc(F)cc1)C(=O)NCc1cccnc1
Activity [1]: Active | Activity [2]: Active | Activity [3]: Active | Activity [4]: Active | Time [5]: 7.6 nanoseconds | Activity [6]: Active | Activity [7]: Active | Activity [8]: Active | Activity [9]: Active | Time [10]: 27.9 nanoseconds | Time [11]: 8.8 nanoseconds | Activity [12]: Active | Time [13]: 13.8 nanoseconds

O=C(NCc1cccnc1)[C@H](Cc1ccc(F)cc1)NC(=O)[C@@H]1CCCCN1S(=O)(=O)Cc1ccc(F)cc1
Activity [1]: Active | Activity [2]: Active | Activity [4]: Active | Time [5]: 7.8 nanoseconds | Activity [6]: Active | Activity [7]: Active | Activity [8]: Active | Activity [9]: Active | Time [10]: 25.4 nanoseconds | Time [11]: 9.7 nanoseconds | Activity [12]: Active | Time [13]: 14.5 nanoseconds | Activity [14]: Active
